Data as given in patent US12414980B2, “Pharmaceutical composition comprising RUNX3 protein and CDK4 inhibitor or mTOR inhibitor cotreatment for prevention or treatment of cancer” (GeneCraft Inc., priority 2020, dated 2025).

Tests used:
Runx3-BRD2 complex = Runx3-BRD2 complex formation after serum stimulation, immunoprecipitation (IP) and immunoblotting (IB); format: cell-based; conditions: for time for which the binding of Runx3 and BRD2 was maintained: after serum stimulation
normal cells = conditions: cited from earlier work
[1] = system: H460 lung cancer cell line; conditions: administered simultaneously with adenovirus expressing Runx3 protein, FIG. 8
Method: H460 cells (ATCC, Manassas, VA, USA) and H460 stable cells were maintained in RPMI 1640 medium (Gibco BRL) supplemented with 10% fetal bovine serum (Gibco BRL) and 1% penicillin/streptomycin (Invitrogen). All the cell lines were cultured in a 37° C., 5% CO2 incubator.
(§1) Cells were harvested and processed using FITC-Annexin V Apoptosis Detection Kit I (BD Biosciences, San Jose, CA, USA) and propidium iodide DNA staining protocol. Apoptosis and cell cycle were analyzed by flow cytometry on a BD FACS caliber machine (BD Biosciences). All data were analyzed using FlowJo software (https://www.flowjo.com).
Particularly, each cell line prepared in Experimental Methods 1 and 4 was harvested and processed using FITC-Annexin V Apoptosis Detection Kit I (BD Biosciences, San Jose, CA, USA) and propidium iodide DNA staining protocol. Apoptosis and cell cycle were analyzed by flow cytometry on a BD FACS caliber machine (BD Biosciences). All data were analyzed using FlowJo software (https://www.flowjo.com).

[2] = system: PANC1 pancreatic cancer cell line; conditions: administered simultaneously with adenovirus expressing Runx3 protein, FIG. 8
Method: as §1

p300-RUNX3 complex = conditions: treatment with MEK1 inhibitor (1 μM per methods); FIG. 3a
Method: Transient transfection was performed in all cell lines using lipofectamine plus reagent and lipofectamine (Invitrogen). Cell lysates were incubated with an appropriate monoclonal or polyclonal antibody (2 μg of antibody/500 μg of lysate sample) at 4° C. for 3 hours, followed by incubation with protein G-Sepharose beads (Amersham Pharmacia Biotech, Piscataway, NJ, USA). For the detection of endogenous proteins at 4° C. for 1 hour, the lysate was incubated with an appropriate monoclonal or polyclonal antibody (1:1000˜1:3000) at 4° C. for 6 to 12 hours, and then protein G-Sepharose beads (Amersham Pharmacia Biotech) were heated at 4° C. for 3 hours. The immune precipitate was digested on an SDS-polyacrylamide gel electrophoresis (SDS-PAGE) gel and transferred to a PVDF membrane (Millipore, Billerica, MA, USA). The membrane was blocked, immunoblotted with an appropriate antibody, treated with ECL solution (Amersham Pharmacia Biotech), and visualized in Amersham™ Imager 600 (GE Healthcare, Chicago, IL, USA).
Before serum starvation, a knockdown assay was performed by transfecting HEK293 cells with 50 nM siRNA using RNAiMAX (Invitrogen, CA, USA). Cells were harvested at the designated time points after serum stimulation. […] HDAC4 siRNA was purchased from Cell Signaling Technology.

ARF = experiment: time-dependent expression of ARF after serum stimulation, immunoblotting (IB); format: cell-based; conditions: suppression of mTOR using rapamycin (100 nM per methods); FIG. 3h
Excerpt: HDAC4 siRNA was purchased from Cell Signaling Technology.

| SMILES | physical binding between Runx3 and Brd2 8 hours after serum stimulation (Runx3-BRD2 complex; CDK4 inhibitor at 1 nM) | time for which the binding of Runx3 and BRD2 was maintained (Runx3-BRD2 complex; CDK4 inhibitor present at 11 nM, FIG. 5) | toxicity to normal cells (normal cells; concentration of 11 nM) | cancer apoptotic effect versus adenovirus expressing Runx3 protein alone [1] | cancer apoptotic effect versus adenovirus expressing Runx3 protein alone [2] | binding of BRD2-RUNX3 (Runx3-BRD2 complex; treatment with MEK1 inhibitor (1 μM per methods), FIG. 3a) | binding of p300-RUNX3 (p300-RUNX3 complex) | time for which the binding of Runx3 and BRD2 was maintained (Runx3-BRD2 complex; mTOR inhibitor present at 100 nM, FIG. 6) | maintenance of Rpa-RX3-AC (Runx3-BRD2 complex; suppression of mTOR using rapamycin (100 nM per methods), FIG. 3h) | time to which the expression of ARF was extended (ARF) | cytotoxicity to normal cells (normal cells; concentration of 100 nM) |
| --- | --- | --- | --- | --- | --- | --- | --- | --- | --- | --- | --- |
| CC(=O)c1c(C)c2cnc(Nc3ccc(N4CCNCC4)cn3)nc2n(C2CCCC2)c1=O [PD0332991] | not observed | up to 8 hours | non-toxic | significantly increased | significantly increased |  |  |  |  |  |  |
| N#CC(=C(/N)Sc1ccccc1N)/C(C#N)=C(\N)Sc1ccccc1N [U0126] |  |  |  |  |  | inhibited | inhibited |  |  |  |  |
| CO[C@H]1C[C@@H]2CC[C@@H](C)[C@@](O)(O2)C(=O)C(=O)N2CCCC[C@H]2C(=O)O[C@H]([C@H](C)C[C@@H]2CC[C@@H](O)[C@H](OC)C2)CC(=O)[C@H](C)/C=C(\C)[C@@H](O)[C@@H](OC)C(=O)[C@H](C)C[C@H](C)/C=C/C=C/C=C/1C [rapamycin] |  |  |  | significantly increased | significantly increased |  |  | up to 8 hours | maintained | up to 8 hours | non-cytotoxic |
